Results from US20080175903A1, “Treatment of anxiety with eszopiclone” (Sepracor Inc., priority 2006, published 2008).
Like-named read-outs stand apart in the source and are kept apart here.

Legend:
[1] = system: healthy adult male human subjects; test: EEG study (quantitative wake EEG) of single doses of eszopiclone versus placebo; assay type: in vivo
Description: A study was conducted to evaluate the pharmacodynamic (quantitative wake electroencephalogram (qEEG) and auditory P300 (evoked potentials (EPs)) of four doses of eszopiclone, relative to placebo, in healthy adult male human subjects. The study was single-blind, placebo-controlled, ascending, single dose. Subjects received single doses of immediate release formulations that contained 0.3 mg of eszopiclone, 0.6 mg of eszopiclone, 0.9 mg of eszopiclone or 2.0 mg of eszopiclone.
Changes in beta EEG activity are interpreted as indicating an anxiolytic effect (Ansseau et al, Neuropsychobiology 1984, 12(4):255-9; Buchsbaum et al, Biol. Psychiatry, 1985, 20(8):832-42; Macher et al, Human psychopharmacology, 1990 (eds I Hindmarch and P D Stonier), Vol 3, 10-2; Mandema and Danhof, Clin Pharmacokinet, 1992, 23(3):191-215.
In this study, statistical EEG maps were obtained comparing EEG power values for each dose of eszopiclone versus placebo. […] The dose effect is further illustrated in the graphically depicted results of FIG. 4 which follows.
Classically, delta activity in pharmaco-EEG indicates a sedative effect of the drug under study. Delta EEG activity is clearly modified when the sedative drug effect has reached a high threshold.
Conclusions regarding a possible sedative effect or a trend to impair the subject's arousal should also include analyses of a drug's effects on alpha EEG activity, which reflect decreases in subject's arousal (pro sedative effect).

rhesus monkeys = test: Rhesus monkey conflict procedure (suppressed and non-suppressed responding); assay type: in vivo; conditions: for ED50: Macaca mulatta, iv, rhesus monkeys; for Estimated anxiolytic dose / expected human oral dose: minimum recommended dose of diazepam 2 mg
Description: FIG. 3 is a plot of rates of non-suppressed and suppressed responding by rhesus monkeys trained in a conflict procedure. Monkeys were injected i.v. with cumulative doses of (S)-zopiclone. Data are mean±S.E.M. for N=4 monkeys. Points above “V” represent data following drug vehicle administration. Note that *P<0.05 vs. V (control). Experimental methodology was identical to that described by Rowlett J K et al. (2006).
“Conflict Procedure,” as used herein refers to the rhesus monkey conflict procedure reported by Rowlett et al. (Psychopharmacology (2006) 184:201-211). Antianxiety dosage determination in rhesus monkeys using the procedure set forth by Rowlett et al. is correlative with antianxiety dosages in humans. The conflict procedure is a method of determining the parameters correlating a clinically determinable effect of eszopiclone in rhesus monkeys with analogous effects in a human subject. The results of conflict procedures in rhesus monkeys are closely correlated with dosages of agents providing anxiolysis in humans. Accordingly, the conflict procedure is a method of determining whether a dosage of eszopiclone provides clinically determinable treatment or prophylaxis of anxiety in humans.
Conflict procedures in animals are used to study mechanisms underlying the anxiolytic effects of benzodiazepines (Rowlett J K et al., Psychopharmacology (2006) 184:201-211). […] The effects of each benzodiazepine in rhesus conflict procedure is to increase suppressed responding at doses lower than the doses that ultimately decrease rates of non-suppressed responding. This characteristic profile in the rhesus conflict procedure contrasts dramatically with the effects of non-benzodiazepine hypnotics zolpidem and zaleplon, and also contrasts to the effects of GABA-A ligands with subtype efficacies different from classical benzodiazepines, such as flumazenil and CL218,872 (Rowlett J K et al., 2006).
This correlation was used to estimate the therapeutic dose in humans for anxiolytic effects. The ED50 of the suppressed responding in FIG. 3 is 0.07 mg/kg i.v., indicating a 50% anxiolytic effect at that dose i.v. in the rhesus procedure. Using this ED50 in the regression analysis of Rowlett J K et al. (2006), an expected human oral dose of 0.9 mg is obtained. This dose is below the hypnotic doses (i.e., it is subsedative) used clinically in humans (1, 2, and 3 mg), further supporting the validity of the correspondence between the efficacy profiles of classical benzodiazepines and (S)-zopiclone.
The potencies of eszopiclone to alter suppressed and non-suppressed responding were estimated by calculating the dose that engendered 5% to 95% of the maximum effect (EDx, where x=5-95%). The EDx for suppressed responding was obtained by dividing rates of suppressed responding for individual monkeys by the average maximum increase in response rate (i.e., the peak effect) and multiplying the value by 100. Doses on the ascending limb of the dose-response function were used to calculate the EDx by log-linear regression analysis. The EDx for non-suppressed responding was obtained by dividing rates of non-suppressed responding for individual monkeys by the average maximum decrease in response rate (this corresponded to the highest dose tested) and multiplying by 100. The EDx values for non-suppressed responding were calculated by log-linear regression analysis. All potencies were expressed as the mean±SEM for n=4 monkeys.
A linear relationship between relative potency to induce clinical effects in humans and relative potency to increase suppressed responding or decrease non-suppressed responding in monkeys has been determined previously for 10 standard benzodiazepines (Rowlett et al., 2006). […]

[2] = log10 of predicted potency relative to diazepam in humans
[3] = predicted potency relative to diazepam in humans
[4] = relative potency in the monkey conflict procedure

CN1CCN(C(=O)O[C@H]2c3nccnc3C(=O)N2c2ccc(Cl)cn2)CC1 [Eszopiclone, (+)-(5S)-6-(chloropyridin-2-yl)-7-oxo-6,7-dihydro-5H-pyrrolo[3,4-b]pyrazin-5-yl 4-methyl-piperazine-1-carboxylate]
Alpha EEG activity (arousal), change from placebo ([1]; doses below 2.0 mg): did not exhibit major effects on arousal
Alpha EEG activity (arousal), change from placebo ([1]; highest dose (2.0 mg)): induces a significant impairment in the subject's arousal and possibly a sedative effect
Delta EEG activity (sedative effect), change from placebo ([1]; highest dose (2.0 mg)): induces a significant sedative effect
Delta EEG activity (sedative effect), change from placebo ([1]; other doses (0.3, 0.6, 0.9 mg)): do not have this side effect
ED50 (rhesus monkeys; read-out: ED50, non-suppressed responding): 0.74 mg/kg
ED50 (rhesus monkeys; read-out: ED50, suppressed responding): 0.07 mg/kg
Estimated anxiolytic dose / expected human oral dose (rhesus monkeys; human, regression of Rowlett et al. (2006), listed as (S)-zopiclone): 0.9 mg
Estimated anxiolytic dose / expected human oral dose (rhesus monkeys; human, regression of Rowlett et al. (2006), listed as eszopiclone): Estimated anxiolytic dose for eszopiclone = 0.9 mg
Estimated sedative dose (rhesus monkeys; human, regression of Rowlett et al. (2006), maximum recommended dose of diazepam 10 mg): Estimated sedative dose for eszopiclone = 3.4 mg
Y = 0.583x − 0.175, Y (eszopiclone relative potency), non-suppressed responding (rhesus monkeys; [2]): −0.47
Y = 0.672x − 0.174, Y (eszopiclone relative potency), suppressed responding (rhesus monkeys; [2]): −0.34
10^Y, non-suppressed responding (rhesus monkeys; [3]): 0.34
10^Y, suppressed responding (rhesus monkeys; [3]): 0.46
Ratio (eszopiclone ED50 / diazepam ED50), non-suppressed responding (rhesus monkeys; [4]): 0.31
Ratio (eszopiclone ED50 / diazepam ED50), suppressed responding (rhesus monkeys; [4]): 0.64
Log10(Ratio), non-suppressed responding (rhesus monkeys; rhesus monkey, in vivo): −0.51
Log10(Ratio), suppressed responding (rhesus monkeys; rhesus monkey, in vivo): −0.19
ED5 to increase rates of suppressed responding (mean) (rhesus monkeys; x = 5 % maximum increase, N = 4 monkeys): 0.029 mg/kg, i.v.
ED10 to increase rates of suppressed responding (mean) (rhesus monkeys; x = 10 % maximum increase, N = 4 monkeys): 0.032 mg/kg, i.v.
ED15 to increase rates of suppressed responding (mean) (rhesus monkeys; x = 15 % maximum increase, N = 4 monkeys): 0.036 mg/kg, i.v.
ED20 to increase rates of suppressed responding (mean) (rhesus monkeys; x = 20 % maximum increase, N = 4 monkeys): 0.040 mg/kg, i.v.
ED25 to increase rates of suppressed responding (mean) (rhesus monkeys; x = 25 % maximum increase, N = 4 monkeys): 0.044 mg/kg, i.v.
ED30 to increase rates of suppressed responding (mean) (rhesus monkeys; x = 30 % maximum increase, N = 4 monkeys): 0.048 mg/kg, i.v.
ED35 to increase rates of suppressed responding (mean) (rhesus monkeys; x = 35 % maximum increase, N = 4 monkeys): 0.054 mg/kg, i.v.
ED40 to increase rates of suppressed responding (mean) (rhesus monkeys; x = 40 % maximum increase, N = 4 monkeys): 0.059 mg/kg, i.v.
ED45 to increase rates of suppressed responding (mean) (rhesus monkeys; x = 45 % maximum increase, N = 4 monkeys): 0.066 mg/kg, i.v.
ED50 to increase rates of suppressed responding (mean) (rhesus monkeys; x = 50 % maximum increase, N = 4 monkeys): 0.073 mg/kg, i.v.
ED55 to increase rates of suppressed responding (mean) (rhesus monkeys; x = 55 % maximum increase, N = 4 monkeys): 0.081 mg/kg, i.v.
ED60 to increase rates of suppressed responding (mean) (rhesus monkeys; x = 60 % maximum increase, N = 4 monkeys): 0.090 mg/kg, i.v.
ED65 to increase rates of suppressed responding (mean) (rhesus monkeys; x = 65 % maximum increase, N = 4 monkeys): 0.100 mg/kg, i.v.
ED70 to increase rates of suppressed responding (mean) (rhesus monkeys; x = 70 % maximum increase, N = 4 monkeys): 0.110 mg/kg, i.v.
ED75 to increase rates of suppressed responding (mean) (rhesus monkeys; x = 75 % maximum increase, N = 4 monkeys): 0.123 mg/kg, i.v.
ED80 to increase rates of suppressed responding (mean) (rhesus monkeys; x = 80 % maximum increase, N = 4 monkeys): 0.136 mg/kg, i.v.
ED85 to increase rates of suppressed responding (mean) (rhesus monkeys; x = 85 % maximum increase, N = 4 monkeys): 0.151 mg/kg, i.v.
ED90 to increase rates of suppressed responding (mean) (rhesus monkeys; x = 90 % maximum increase, N = 4 monkeys): 0.168 mg/kg, i.v.
ED95 to increase rates of suppressed responding (mean) (rhesus monkeys; x = 95 % maximum increase, N = 4 monkeys): 0.186 mg/kg, i.v.
